According to patent US20220409629A1, “BENZODIAZEPINE DERIVATIVES FOR TREATING A RESPIRATORY SYNCYTIAL VIRUS (RSV) INFECTION” (priority 2019, published 2022):

What was measured:
[1] = Liver microsomal stability, human; assay type: in vitro ADME; settings: pH 7.4; human liver microsomes, 0.5 mg/mL protein, 1 μM compound, NADPH; >80% remaining at 45 min denoted >140; read-out: Liver Microsomal Stability: t1/2 (min); human
Procedure, shortened: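 Pooled liver microsomes (0.5 mg/mL protein) in 0.1 M phosphate pH 7.4 with 1 μM compound (0.25% DMSO), started with 1 mM NADPH at 37° C; sampled 0-45 min, minus-NADPH control 45 min. LC-MS/MS depletion slope gave t1/2 and CLint.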

[2] = Liver hepatocyte stability, human; assay type: in vitro ADME; settings: human hepatocytes, 3 μM compound, 60 min, >80% remaining at 60 min denoted >186, read-out: Liver Hepatocyte Stability: t1/2 (min)
Experimental: (§1) Cryopreserved pooled hepatocytes were purchased from a reputable commercial supplier and stored in liquid nitrogen prior to use. Williams E media supplemented with 2 mM L-glutamine and 25 mM HEPES and test compound (final substrate concentration 3 μM; final DMSO concentration 0.25%) are pre-incubated at 37° C. prior to the addition of a suspension of cryopreserved hepatocytes (final cell density 0.5×10^6 viable cells/mL in Williams E media supplemented with 2 mM L-glutamine and 25 mM HEPES) to initiate the reaction. The final incubation volume is 500 μL. Two control compounds were included with each species, alongside appropriate vehicle control. The reactions are stopped by transferring 50 μL of incubate to 100 μL acetonitrile containing internal standard at the appropriate time points. Samples were removed at 6 time points (0, 5, 15, 30, 45 and 60 min) over the course of a 60 min experiment. The termination plates are centrifuged at 2500 rpm at 4° C. for 30 min to precipitate the protein. Following protein precipitation, the sample supernatants were combined in cassettes of up to 4 compounds and analysed using generic LC-MS/MS conditions. From a plot of ln peak area ratio (compound peak area/internal standard peak area) against time, the gradient of the line is determined. Subsequently, half-life (t1/2) and intrinsic clearance (CLint) were calculated.

RSV A2 = experiment: RSV plaque reduction assay; assay type: cell-based, respiratory syncytial virus (RSV); settings: human respiratory syncytial virus, HepG2; Hep-G2 cells, RSV A2, mean of at least two experiments
Procedure, shortened: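 RSV A2 (100 PFU/well) premixed with eight serial compound dilutions, added to confluent Hep-G2 monolayers for 2 h at 37° C, then held 2 days under CMC overlay containing compound (DMEM, 2% FBS). Plaques immunostained (HRP/TrueBlue) and counted; EC50 is 50% reduction versus virus control from 4-parameter fit, mean of ≥2 experiments.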

[3] = Liver hepatocyte stability, rat; assay type: in vitro ADME; settings: rat hepatocytes, 3 μM compound, 60 min, >80% remaining at 60 min denoted >186, read-out: Liver Hepatocyte Stability: t1/2 (min)
Experimental: as §1

| SMILES | half-life at 1 µM [1] [min] | half-life at 3 µM [2] [min] | EC50 (RSV A2) [nM] | half-life at 3 µM [3] [min] | half-life [1] [min] | half-life [2] [min] | half-life [3] [min] |
| --- | --- | --- | --- | --- | --- | --- | --- |
| CCn1ncc(C(=O)N[C@H]2N=C(c3ccccc3)c3ccccc3NC2=O)c1-c1ccc(NC(C)C)nc1F [Example 3, 1-Ethyl-5-[2-fluoro-6-(propan-2-ylamino)pyridin-3-yl]-N-[(3S)-2-oxo-5-phenyl-1,3-dihydro-1,4-benzodiazepin-3-yl]pyrazole-4-carboxamide] | 287 | 52.6 | 97 | 73.8 |  |  |  |
| CCn1ncc(C(=O)N[C@H]2N=C(c3ccccc3)c3ccccc3NC2=O)c1-c1ccc(NC2CC2)nc1F [Example 4, 1-Ethyl-5-[2-fluoro-6-(cyclopropylamino)pyridin-3-yl]-N-[(3S)-2-oxo-5-phenyl-1,3-dihydro-1,4-benzodiazepin-3-yl]pyrazole-4-carboxamide] |  |  | 42 |  | 52 | 53.5 | 47.3 |
| O=C(N[C@H]1N=C(c2ccccc2)c2cccc(F)c2NC1=O)c1cnn(C2CCOCC2)c1-c1ccc(NC2CC2)nc1F [Example 21, 5-[6-(Cyclopropylamino)-2-fluoropyridin-3-yl]-N-[(3S)-9-fluoro-2-oxo-5-phenyl-1,3-dihydro-1,4-benzodiazepin-3-yl]-1-(oxan-4-yl)pyrazole-4-carboxamide] |  |  | 21 |  | 170 | > 186 | 284 |
| CC(C)Nc1ccc(-c2c(C(=O)N[C@H]3N=C(c4ccccc4)c4cccc(F)c4NC3=O)cnn2C2CCOCC2)c(F)n1 [Example 22, N-[(3S)-9-fluoro-2-oxo-5-phenyl-1,3-dihydro-1,4-benzodiazepin-3-yl]-5-[2-fluoro-6-(propan-2-ylamino)pyridin-3-yl]-1-(oxan-4-yl)pyrazole-4-carboxamide] |  |  | 40 |  | 287 | 207 | 120 |
| CCNc1ccc(-c2c(C(=O)N[C@H]3N=C(c4ccccc4)c4cccc(F)c4NC3=O)cnn2C2CCOCC2)c(F)n1 [Example 24, 5-[6-(Ethylamino)-2-fluoropyridin-3-yl]-N-[(3S)-9-fluoro-2-oxo-5-phenyl-1,3-dihydro-1,4-benzodiazepin-3-yl]-1-(oxan-4-yl)pyrazole-4-carboxamide] |  |  | 33 |  | > 140 | 162 | 228 |
